Assay results: ChEMBL document CHEMBL1201862, “PubChem BioAssay data set” (2004)
The source made the active and inactive calls.

Tests used:
[1] = NIH-3T3 fibroblast cytotoxicity, dose response, cytotoxicity control, cell-based, fluorescence, Alamar Blue, secondary assay (AID 2327); assay type: functional;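 note: NIH-3T3 mouse fibroblasts cultured with fluconazole at 8 µg/mL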
[2] = target: T1, Aminopeptidase N (Plasmodium falciparum FcB1/Columbia, UniProt O96935); assay: P. falciparum M1AAP inhibitors, biochemical, fluorogenic H-Leu-NHMec substrate, 1536-well (AID 1445); parameters: species or system Plasmodium falciparum 3D7, 3D7
T1 sequence (O96935 whole entry): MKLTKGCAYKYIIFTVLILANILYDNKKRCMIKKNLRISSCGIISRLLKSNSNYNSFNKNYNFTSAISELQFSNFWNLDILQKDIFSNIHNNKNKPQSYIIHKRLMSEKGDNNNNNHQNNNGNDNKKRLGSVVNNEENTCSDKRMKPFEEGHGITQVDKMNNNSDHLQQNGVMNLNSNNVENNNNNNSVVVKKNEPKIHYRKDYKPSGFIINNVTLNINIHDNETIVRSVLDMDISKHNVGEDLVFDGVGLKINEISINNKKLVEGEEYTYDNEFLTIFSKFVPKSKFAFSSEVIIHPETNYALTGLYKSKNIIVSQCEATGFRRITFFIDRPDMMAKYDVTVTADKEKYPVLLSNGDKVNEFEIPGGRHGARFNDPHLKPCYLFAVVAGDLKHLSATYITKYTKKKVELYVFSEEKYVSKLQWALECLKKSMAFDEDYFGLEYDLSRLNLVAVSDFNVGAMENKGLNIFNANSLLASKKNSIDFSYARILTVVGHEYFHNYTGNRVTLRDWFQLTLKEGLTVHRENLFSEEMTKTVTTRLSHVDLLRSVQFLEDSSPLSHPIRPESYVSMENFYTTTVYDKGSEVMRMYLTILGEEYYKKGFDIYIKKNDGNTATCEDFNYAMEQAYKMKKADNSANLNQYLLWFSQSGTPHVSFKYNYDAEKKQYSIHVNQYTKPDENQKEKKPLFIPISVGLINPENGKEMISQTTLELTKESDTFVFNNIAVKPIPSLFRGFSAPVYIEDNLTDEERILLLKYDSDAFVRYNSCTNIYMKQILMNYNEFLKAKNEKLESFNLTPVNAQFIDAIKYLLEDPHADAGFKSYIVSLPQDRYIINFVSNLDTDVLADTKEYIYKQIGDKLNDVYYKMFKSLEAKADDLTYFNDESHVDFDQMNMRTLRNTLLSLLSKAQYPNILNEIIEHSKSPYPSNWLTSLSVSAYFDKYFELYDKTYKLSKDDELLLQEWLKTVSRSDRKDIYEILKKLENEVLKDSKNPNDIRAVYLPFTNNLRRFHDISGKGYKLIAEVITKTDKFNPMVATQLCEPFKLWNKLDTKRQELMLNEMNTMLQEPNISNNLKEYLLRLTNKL

[3] = C. albicans growth with fluconazole, confirmation, fluorescence, retest (AID 2467); assay type: functional, cell-based
[4] = target: T2, Replicative DNA helicase DnaB (Mycobacterium tuberculosis, UniProt P9WMR3); assay: DnaB intein splicing inhibitors, dose response, biochemical, cell-free fluorescence (AID 449749); assay type: functional
T2 sequence (P9WMR3 whole entry): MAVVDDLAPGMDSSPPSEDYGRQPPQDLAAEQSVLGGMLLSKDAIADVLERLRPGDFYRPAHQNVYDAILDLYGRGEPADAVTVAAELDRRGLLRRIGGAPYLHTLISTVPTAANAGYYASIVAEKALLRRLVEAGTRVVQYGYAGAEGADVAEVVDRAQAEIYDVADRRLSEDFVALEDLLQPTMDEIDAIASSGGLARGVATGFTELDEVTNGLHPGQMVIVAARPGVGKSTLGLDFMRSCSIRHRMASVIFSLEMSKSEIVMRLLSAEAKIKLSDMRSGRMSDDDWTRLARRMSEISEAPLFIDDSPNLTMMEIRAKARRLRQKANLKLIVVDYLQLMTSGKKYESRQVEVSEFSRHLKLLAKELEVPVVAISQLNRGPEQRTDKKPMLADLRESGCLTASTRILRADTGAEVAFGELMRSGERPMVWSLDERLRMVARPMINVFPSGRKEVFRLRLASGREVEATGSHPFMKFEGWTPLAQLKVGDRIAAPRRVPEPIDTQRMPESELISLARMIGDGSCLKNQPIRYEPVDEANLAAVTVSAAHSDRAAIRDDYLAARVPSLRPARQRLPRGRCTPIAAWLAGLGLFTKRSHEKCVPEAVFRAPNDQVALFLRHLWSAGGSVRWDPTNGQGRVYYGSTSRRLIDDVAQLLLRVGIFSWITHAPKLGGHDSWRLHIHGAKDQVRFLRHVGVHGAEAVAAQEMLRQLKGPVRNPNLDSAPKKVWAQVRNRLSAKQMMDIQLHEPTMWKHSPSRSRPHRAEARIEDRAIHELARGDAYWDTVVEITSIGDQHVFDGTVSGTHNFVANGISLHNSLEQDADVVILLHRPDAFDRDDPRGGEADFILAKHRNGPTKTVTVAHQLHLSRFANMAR

[5] = target: T3, Protein RecA (Mycobacterium tuberculosis, UniProt P9WHJ3); assay: Fluorescence Cell-Free Homogeneous Dose Retest to Identify Inhibitors of RecA-Intein Splicing Activity. [Related pubchem assays (depositor defined):AID2097, AID2223, AID489010, AID492950]; assay type: functional
T3 sequence (P9WHJ3 whole entry): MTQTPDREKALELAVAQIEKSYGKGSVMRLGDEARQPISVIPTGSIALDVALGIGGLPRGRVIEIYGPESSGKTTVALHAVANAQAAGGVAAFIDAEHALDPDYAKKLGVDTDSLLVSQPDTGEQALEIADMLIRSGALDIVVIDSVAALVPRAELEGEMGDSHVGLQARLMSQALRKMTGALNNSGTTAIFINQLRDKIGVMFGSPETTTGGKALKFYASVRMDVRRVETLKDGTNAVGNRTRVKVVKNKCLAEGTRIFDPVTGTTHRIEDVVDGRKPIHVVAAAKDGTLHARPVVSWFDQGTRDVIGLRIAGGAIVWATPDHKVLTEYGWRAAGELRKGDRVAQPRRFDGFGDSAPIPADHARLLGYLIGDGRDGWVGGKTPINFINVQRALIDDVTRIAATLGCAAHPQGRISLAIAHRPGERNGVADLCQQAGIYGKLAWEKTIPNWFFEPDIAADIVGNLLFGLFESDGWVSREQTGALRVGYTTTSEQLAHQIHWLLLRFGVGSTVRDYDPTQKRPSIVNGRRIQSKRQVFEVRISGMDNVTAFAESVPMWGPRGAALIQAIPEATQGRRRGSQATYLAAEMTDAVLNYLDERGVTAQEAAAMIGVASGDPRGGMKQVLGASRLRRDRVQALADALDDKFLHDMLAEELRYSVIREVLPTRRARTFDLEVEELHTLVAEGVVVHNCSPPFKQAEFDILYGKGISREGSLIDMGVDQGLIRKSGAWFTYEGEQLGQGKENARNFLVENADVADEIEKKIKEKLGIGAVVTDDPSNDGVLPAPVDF

[6] = target: T4, Caspase-6 (Homo sapiens, UniProt P55212); assay: human caspase-6 inhibitors, dose response, biochemical, VEID-R110 fluorescence, cherry-pick (AID 720632)
T4 sequence (P55212 whole entry): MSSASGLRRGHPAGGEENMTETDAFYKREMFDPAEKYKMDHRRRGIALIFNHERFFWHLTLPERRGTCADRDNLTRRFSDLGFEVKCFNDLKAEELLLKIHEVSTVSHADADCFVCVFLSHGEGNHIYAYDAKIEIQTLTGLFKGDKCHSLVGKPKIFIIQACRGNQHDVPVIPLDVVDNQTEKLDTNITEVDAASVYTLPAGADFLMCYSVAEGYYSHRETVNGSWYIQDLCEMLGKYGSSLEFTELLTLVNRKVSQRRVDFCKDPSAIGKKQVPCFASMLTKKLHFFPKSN

[7] = target: E3 ubiquitin-protein ligase Mdm2 (Homo sapiens, UniProt Q00987); assay: enhancers of MDM2-luciferase reporter signal, concentration-effect titration, project on inhibitors of MDM2 ubiquitin ligase, cellular assay, luminescent readout, 384-well plate format (AID 1394); assay type: functional;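 note: MDM2 E3 inhibitors raise luminescence so EC50 is for signal enhancement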
[8] = Luminescence Cell-Based Dose Response to Identify Activators of 5'UTR Stem-Loop Driven Prion Protein mRNA Translation in H4-C Neuroglioblastoma Cells. [Related pubchem assays: 1829 (Project Summary), 1814 (Primary HTS)]; assay type: functional
[9] = Luminescence Cell-Based Dose Response HTS to Identify Activators of Luciferase Translation or Activity in H4 […] Cells. [Related pubchem assays: 1829 (Project Summary), 1814 (Primary HTS)]; assay type: functional
[10] = tested on: H4; assay: Luminescence Cell-Based Dose Response HTS to Identify Activators of 5'UTR Stem-Loop Driven Prion Protein mRNA Translation in H4 Neuroglioblastoma Cells. [Related pubchem assays: 1829 (Project Summary), 1814 (Primary HTS)]; assay type: functional; conditions: Homo sapiens
[11] = Luminescence Cell-Based Dose Response to Identify Activators of Luciferase Translation or Activity in H4-C Neuroglioblastoma Cells. [Related pubchem assays: 1829 (Project Summary), 1814 (Primary HTS)]; assay type: functional
[12] = Luminescence Cell-Based Dose Confirmation to Identify Activators of 5'UTR Stem-Loop Driven Alpha-Synuclein mRNA Translation in H4 Neuroglioblastoma Cells. [Related pubchem assays: 1829 (Project Summary), 1814 (Primary HTS)]; assay type: functional
[13] = THP-1 cell cytotoxicity, dose response, cytotoxicity control for Vif-APOBEC3G degradation inhibitor project, THP-1 cells (AID 1117359); assay type: functional; conditions: Human immunodeficiency virus 1, THP-1
[14] = P. falciparum 3D7-ScDHODH growth inhibitors, dose response, SYBR Green, dry powder samples (AID 1159570); assay type: functional, cell-based;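 note: parasite growth measured after 72 hours of compound exposure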
[15] = HepG2 cell cytotoxicity, dose response, cytotoxicity control, plate reader, dry powder samples (AID 1159569); assay type: functional, cell-based;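 note: inhibitor potency with signal falling toward the positive control level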
[16] = P. falciparum Dd2 growth inhibitors, dose response, SYBR Green, dry powder samples (AID 1159566); assay type: functional, cell-based;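 note: potency for growth inhibition with lower SYBR green DNA signal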
[17] = P. falciparum ATP4 D1247Y mutant growth inhibitors, dose response, NITD609-resistant line, SYBR Green, dry powder (AID 1159571); assay type: functional, cell-based;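 note: parasites synchronized at ring stage by sorbitol before testing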
[18] = P. falciparum Dd2 growth inhibitors, dose response, SYBR Green, cherry-picked samples (AID 1159567); assay type: functional, cell-based

Sequence of E3 ubiquitin-protein ligase Mdm2 (Q00987 whole entry): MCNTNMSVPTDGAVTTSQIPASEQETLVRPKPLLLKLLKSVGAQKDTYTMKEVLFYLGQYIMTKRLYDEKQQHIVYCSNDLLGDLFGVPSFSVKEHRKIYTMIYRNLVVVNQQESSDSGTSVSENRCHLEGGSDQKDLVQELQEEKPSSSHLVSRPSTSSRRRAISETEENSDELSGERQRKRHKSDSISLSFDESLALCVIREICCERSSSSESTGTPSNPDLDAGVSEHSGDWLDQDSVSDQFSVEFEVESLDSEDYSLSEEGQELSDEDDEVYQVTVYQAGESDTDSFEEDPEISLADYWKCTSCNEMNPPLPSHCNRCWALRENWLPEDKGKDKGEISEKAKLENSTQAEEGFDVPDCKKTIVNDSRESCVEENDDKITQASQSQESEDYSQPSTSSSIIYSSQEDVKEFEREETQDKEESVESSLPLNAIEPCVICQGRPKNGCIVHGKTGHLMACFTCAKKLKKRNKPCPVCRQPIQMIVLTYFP

For Cc1ccc(C(=O)c2coc3cc([N+](=O)[O-])c(O)c([N+](=O)[O-])c23)cc1, the EC50 [1] was > 160 µM (inactive), the IC50 [2] was 32.1 µM (active) and the EC50 [3] was > 38 µM (not active). For the same molecule, the AC50 [4] was 24.4 µM (active), the EC50 [5] was 9.46 µM (active) and the AC50 [6] was 28.8 µM (active).
In the case of COc1ccc(C)cc1C1=Nc2ccccc2C1(C)C, the EC50 [7] is reported as 15.4 µM (not active).
For CC(C)(C)c1ccc(C(=O)NC(=S)N2CCOCC2)cc1, the EC50 [8] was 418 nM (active), the EC50 [9] was 610 nM (active) and the EC50 [10] was 111 nM (active). The EC50 [11] was > 12 µM (not active) and the EC50 [12] was 2.81 µM (active).
With Cc1ccc(NC(=O)C(=O)c2c(-c3ccccc3)cc3ccccn23)cc1S(=O)(=O)N1CCOCC1 the CC50 [13] was > 40 µM (active).
In the case of Cc1nc2cc(NC(=O)CCS(=O)(=O)c3ccccc3)ccc2s1, the EC50 [8] is reported as 312 nM (active), the EC50 [9] is reported as < 100 nM (inconclusive) and the EC50 [11] is reported as 0.264 µM (active). The EC50 [12] was 0.069 µM (active).
In the case of C[C@H]1CN([C@@H](C)CO)S(=O)(=O)c2ccc(C#Cc3ccncc3)cc2O[C@@H]1CN(C)S(=O)(=O)c1ccccc1, the AC50 [14] is reported as 3 µM (active), the AC50 [15] is reported as > 100 µM (inactive) and the AC50 [16] is reported as 4.05 µM (active). The AC50 [17] was 3.53 µM (active).
For O=C(N/N=C\c1ccc(Cl)s1)c1cccs1, the EC50 [7] was 6.96 µM (not active).
For COc1ccc2c3c(n(C)c2c1)[C@H](CO)N(C(=O)Nc1ccc(F)cc1)CC31CCN(S(=O)(=O)c2cccc(F)c2)CC1, the AC50 [14] was 1.63 µM (active), the AC50 [15] was > 100 µM (inactive) and the AC50 [18] was 1.19 µM (active). The AC50 [16] was 0.951 µM (active) and the AC50 [17] was 1.56 µM (active).
